From ChEMBL document CHEMBL3120047, “Ligand bioactive conformation plays a critical role in the design of drugs that target the hepatitis C virus NS3 protease” (J Med Chem, 2014)
Non-standard residues stand in square brackets, D forms with d. Residues, ends and D or L forms follow the SMILES beside them. *: point of attachment. Hyp = O=C(O)[C@@H]1C[C@@H](O)CN1; Nva = CCC[C@H](N)C(=O)O; Bn = c1ccc(C*)cc1

Test: Inhibition of HCV genotype 1b NS3/NS4A protease using DDIVPCSMSYTW as substrate by radiometric enzymatic assay
Design: species or system Hepatitis C virus subtype 1b

Molecule	Ki [nM]	IC50 [nM]
C=C[C@@H]1C[C@]1(NC(=O)[C@@H]1C[C@@H](Oc2cc(-c3ccccc3)nc3cc(OC)ccc23)CN1C(=O)CNC(=O)OC(C)(C)C)C(=O)O	3000	–
C=C[C@@H]1C[C@]1(NC(=O)[C@@H]1C[C@@H](Oc2ccncc2)CN1C(=O)[C@@H](NC(=O)OC(C)(C)C)C(C)(C)C)C(=O)O	29000	–
C=C[C@@H]1C[C@]1(NC(=O)[C@@H]1C[C@@H](Oc2cc(-c3ccccc3)nc3cc(OC)ccc23)CN1C(C)=O)C(=O)O	28000	–
H-DDIVPC-OH	19000	71000
C=C[C@@H]1C[C@]1(NC(=O)[C@@H]1CCCN1C(=O)[C@@H](NC(=O)OC(C)(C)C)C(C)(C)C)C(=O)O	> 600000	–
C=C[C@@H]1C[C@]1(NC(=O)[C@@H]1C[C@@H](Oc2ccccc2)CN1C(=O)[C@@H](NC(=O)OC(C)(C)C)C(C)(C)C)C(=O)O	29000	–
COc1ccc2c(O[C@@H]3C[C@@H](C(=O)NCC(=O)O)N(C(=O)[C@@H](NC(=O)OC(C)(C)C)C(C)(C)C)C3)cc(-c3ccccc3)nc2c1	56000	–
CCC[C@H](NC(=O)[C@@H]1C[C@@H](OCc2ccccc2)CN1C(=O)[C@@H](NC(=O)[C@@H](NC(=O)[C@H](CC(=O)O)NC(=O)[C@H](CC(=O)O)NC(C)=O)[C@@H](C)CC)C(C)C)C(=O)O (Ac-DDIV[Hyp](Bn)[Nva]-OH)	1900	–

The next molecules have a lower Ki than those just listed; values first:

Ki [nM]	IC50 [nM]	Molecule
310	–	C=C[C@@H]1C[C@]1(NC(=O)[C@@H]1C[C@@H](Oc2cc(-c3ccccc3)nc3cc(OC)ccc23)CN1C(=O)[C@H](C)NC(=O)OC(C)(C)C)C(=O)O
310	–	C=C[C@@H]1C[C@]1(NC(=O)[C@@H]1C[C@@H](Oc2cccc3ccccc23)CN1C(=O)[C@@H](NC(=O)OC(C)(C)C)C(C)(C)C)C(=O)O
1600	–	C=C[C@@H]1C[C@]1(NC(=O)[C@@H]1C[C@@H](Oc2cc(-c3ccccc3)nc3cc(OC)ccc23)CN1C(=O)CC(C)(C)C)C(=O)O
140	–	C=C[C@@H]1C[C@]1(NC(=O)[C@@H]1C[C@@H](Oc2ccnc3ccccc23)CN1C(=O)[C@@H](NC(=O)OC(C)(C)C)C(C)(C)C)C(=O)O
20	–	C=C[C@@H]1C[C@]1(NC(=O)[C@@H]1C[C@@H](Oc2cc(-c3ccccc3)nc3cc(OC)ccc23)CN1C(=O)[C@@H](NC(=O)OC(C)(C)C)C(C)(C)C)C(=O)O
350	–	COc1ccc2c(O[C@@H]3C[C@@H](C(=O)NC4(C(=O)O)CC4)N(C(=O)[C@@H](NC(=O)OC(C)(C)C)C(C)(C)C)C3)cc(-c3ccccc3)nc2c1
